# Columns and labels:
# Format in all cases: cell-based, human
# [1] = tested on: FGFR1/MEK/ERK signaling pathway; experiment: FGFR1/MEK/ERK phosphorylation in PCa cell lines (immunoblotting)
# Experimental: In order to test whether Gremlin1 promoted the FGFR-MAPK signaling, we first performed analysis of the expression levels of the four FGFRs in CRPC patients. […] We treated LNCaP and PC3 with GREM1 in different concentrations (1 ng/ml, 10 ng/ml, 100 ng/ml) and examined phosphorylation levels of FGFR1, MEK and ERK.
# (§1) MAPK signaling can be activated through many membrane receptors besides FGFR. To test whether the activation of MAPK pathway by GREM1 was via FGFR, we constructed a FGFR1 knockout LNCaP subline by the CRISPR/Cas9 method. […] To further test whether the tumor promoting effect of GREM1 was through FGFR, we utilized small molecule inhibitors of FGFR or EGFR.
# 14E3 was tested to target GREM1 in human PCa.
# LNCaP cells = experiment: GREM1-promoted PCa cell proliferation and sphere formation with FGFR1/MEK inhibitors or BMP4
# From the text: as §1
# [2] = tested on: GREM1 expression in LNCaP cells; experiment: Regulation of GREM1 expression by AR agonist/antagonist in LNCaP cells (q-PCR, immunoblot, luciferase reporter); details: R1881 1 nM, enzalutamide 10 μg/ml
# From the text: AR plays a central role in PCa. To assess the relationship between Gremlin1 and AR signaling, we performed further IHC staining for Gremlin1 and PSA, a classic downstream target of AR, on sections of CRPC specimens. […] In addition, we detected a significant increase of GREM1 in a castration resistant LNCaP cell line (termed as LNCaP R), which was derived from xenograft LNCaP tumors implanted in castrated mice, compared to a control LNCaP cell line generated from xenografts in intact mice (FIG. 2A). We then asked whether the expression of GREM1 was regulated by AR signaling. We utilized an AR expressing lentivirus or the CRISPR/Cas9 method to achieve AR upregulation (FIG. 2B) or knockout in the LNCaP PCa cell line (FIG. 2D). […] This conclusion was supported by AR agonist R1881 and antagonist Enzalutamide treatment experiments (FIG. 1D, 1E).
# Additionally, we carried out a luciferase reporter assay.
Compound,"activation of MAPK/FGFR1 signaling axis by GREM1 in presence of inhibitor ([1]; inhibitor 1 μM, Gremlin1 100 ng/ml, PC3 and LNCaP-resistance cells)",proliferation promoting role of GREM1 (LNCaP cells),sphere-formation promoting role of GREM1 (LNCaP cells),GREM1 mRNA transcription [2],GREM1 promoter driven luciferase activity [2],Gremlin1 protein level [2],"time of highest MAPK signaling activation ([1]; FGF 20 ng/ml, PC3 and LNCaP cells, quickly diminished afterwards) [min]"
"CCN1CCN(c2ccc(Nc3cc(N(C)C(=O)Nc4c(Cl)c(OC)cc(OC)c4Cl)ncn3)cc2)CC1 [BGJ398, reference compound]",attenuated,significantly compromised,significantly compromised,,,,
C[C@]1(O)CC[C@H]2[C@@H]3CCC4=CC(=O)CCC4=C3C=C[C@@]21C [R1881],,,,downregulated,greatly inhibited,downregulated,
CNC(=O)c1ccc(N2C(=S)N(c3ccc(C#N)c(C(F)(F)F)c3)C(=O)C2(C)C)cc1F [enzalutamide],,,,significantly increased,enhanced,significantly increased,
FGF1: known FGFR1 ligand used as a positive control,,,,,,,10

# Source: patent publication US20240190950A1, “METHOD OF TREATING DISEASES USING GREMLIN1 ANTAGONISTS” (SHANGHAI JIAO TONG UNIVERSITY, priority 2021, published 2024)
